In patent publication US12286443B2, “Bycyclic JAK inhibitors and uses thereof” (Insilico Medicine IP Limited, priority 2019, dated 2025) one finds IC50 data, which are given here for 24 molecules.

Type in all cases: biochemical
In one assay the target is T1, JAK1 (Homo sapiens, UniProt P23458).
T1 construct: purchased Invitrogen PV4775
The experiment in a line: Inhibition of JAK1 kinase, LANCE Ultra TR-FRET assay. As to conditions: 2 nM JAK1, 2x ATP 76 μM, 15 min pre-incubation, 90 min reaction, 23° C. On the procedure:
(§1) Exemplary compounds were assayed to determine potency in inhibiting activity of JAK1-3 and TYK2 kinases by determining IC50 values.
(§2) The sources of test materials and equipment are as follows: JAK1 (Invitrogen, Cat. No PV4775), JAK2 (Invitrogen, Cat. No PV4210), JAK3 (Invitrogen, Cat. No PV4080), TYK2 (Invitrogen, Cat. No PR8440C), ATP (Sigma, Cat. No. A7699-1G), DMSO (Sigma, Cat. No. D2650), DTT (Sigma, Cat. No. 43815), 384 wells_compound plate (Greiner, Cat. No. 781280), 384 wells_assay plate (Perkin Elmer, Cat. No. 6007299), LANCE Ultra ULight™-JAK-1 peptide (Perkin Elmer, Cat. No. TRF0121), LANCET™ Eu-W1024 Anti-phosphotyrosine (PT66) (Perkin Elmer, Cat. No. AD0069), LANCET™ Detection Buffer(Perkin Elmer, Cat. No. CR97-100).
(§3) The concentrations of test compounds varied from 100 μM to 1.7 nM with 3-fold dilution, 11 points, in duplicates while the concentrations of the reference compound, Tofacitinib, varied from 1 μM to 0.017 nM with 3-fold dilution, 11 points, in duplicates.
(§4) The assay buffer contained 50 mM HEPES (pH 7.5), 0.01% Brij-35, 10 mM MgCl2, 1 mM EDTA, 2 mM DTT. Incubations were carried out at 23° C.
(§5) Prior to the assay, enzyme, peptide substrate and serially diluted test compounds were pre-incubated together in assay buffer (5 μL) for 15 minutes (peptide substrate concentration: 50 nM; JAK enzyme concentrations: 2 nM JAK1; […]; […] and 4 nM TYK2). And the assay was initiated by the addition of 5 μL assay buffer containing 2× final ATP concentration (these are the 2×ATP concentrations: 76 μM JAK1; 24 μM JAK2; 8 μM JAK3 and 30 μM TYK2). Following the 90-minute incubation, antibody conjugated with Eu is dissolved in detection buffer to add into wells and then incubated for 60 minutes. The 10 μL detection buffer contains EDTA to stop the enzymatic reaction. The plate is analyzed by Perkin Elmer Envision on TR-FRET mode. The high ratio of 665/615 represents no inhibition of kinase reaction while the low ratio of 665/615 represents complete inhibition of kinase reaction.
(§6) Curves are fit by XLFIT5 as inhibition rate % vs. log [compound concentration] using 4 parameters logistic model 205.
(§7) In the table, “A” indicates an IC50 of less than 100 nM, “B” indicates an IC50 range from 100 nM to 500 nM; “C” indicates an IC50 range from 500 nM to 2 μM; and “D” indicates an IC50 greater than 2 μM. Also, “na” indicates data is not available.
On the technique in general: Time-resolved FRET reads energy transfer from a long-lived donor to a nearby acceptor.

A further assay deals with T2, JAK2 (Homo sapiens, UniProt O60674).
T2 construct: purchased Invitrogen PV4210
T2 sequence (O60674 whole entry): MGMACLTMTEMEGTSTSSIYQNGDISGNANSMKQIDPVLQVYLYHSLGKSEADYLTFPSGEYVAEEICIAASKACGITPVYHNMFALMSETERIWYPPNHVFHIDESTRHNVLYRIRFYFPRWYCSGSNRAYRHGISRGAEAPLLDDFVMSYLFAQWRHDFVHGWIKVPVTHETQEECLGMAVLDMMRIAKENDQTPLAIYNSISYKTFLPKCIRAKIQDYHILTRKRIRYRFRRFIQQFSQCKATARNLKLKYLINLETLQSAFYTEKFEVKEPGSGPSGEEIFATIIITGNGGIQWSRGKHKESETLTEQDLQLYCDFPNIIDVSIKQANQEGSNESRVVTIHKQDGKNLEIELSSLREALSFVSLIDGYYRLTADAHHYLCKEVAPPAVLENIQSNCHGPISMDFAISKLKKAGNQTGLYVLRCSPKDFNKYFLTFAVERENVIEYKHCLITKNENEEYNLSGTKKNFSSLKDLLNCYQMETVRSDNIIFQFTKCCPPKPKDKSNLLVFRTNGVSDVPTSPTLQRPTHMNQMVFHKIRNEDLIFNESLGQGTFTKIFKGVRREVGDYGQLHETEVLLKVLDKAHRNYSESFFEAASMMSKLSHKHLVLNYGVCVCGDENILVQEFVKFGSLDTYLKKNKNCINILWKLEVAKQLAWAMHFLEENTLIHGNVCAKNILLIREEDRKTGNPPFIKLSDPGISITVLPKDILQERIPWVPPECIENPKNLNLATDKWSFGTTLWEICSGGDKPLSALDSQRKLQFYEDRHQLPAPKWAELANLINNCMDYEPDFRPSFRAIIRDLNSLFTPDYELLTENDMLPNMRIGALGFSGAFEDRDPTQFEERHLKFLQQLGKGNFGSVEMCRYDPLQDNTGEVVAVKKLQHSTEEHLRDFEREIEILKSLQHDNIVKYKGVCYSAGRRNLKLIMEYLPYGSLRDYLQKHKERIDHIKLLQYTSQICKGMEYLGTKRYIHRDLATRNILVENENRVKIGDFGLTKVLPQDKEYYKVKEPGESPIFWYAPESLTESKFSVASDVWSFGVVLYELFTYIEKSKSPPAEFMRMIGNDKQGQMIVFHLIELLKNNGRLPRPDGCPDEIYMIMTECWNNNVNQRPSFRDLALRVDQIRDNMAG
Kind of assay: Inhibition of JAK2 kinase, LANCE Ultra TR-FRET assay. As to conditions: 2x ATP 24 μM, 15 min pre-incubation, 90 min reaction, 23° C. On the procedure:
as §1, §2, §3, §4, §5, §6, §7

A further assay deals with T3, JAK3 (Homo sapiens, UniProt P52333).
T3 construct: purchased Invitrogen PV4080
T3 sequence (P52333 1-1124): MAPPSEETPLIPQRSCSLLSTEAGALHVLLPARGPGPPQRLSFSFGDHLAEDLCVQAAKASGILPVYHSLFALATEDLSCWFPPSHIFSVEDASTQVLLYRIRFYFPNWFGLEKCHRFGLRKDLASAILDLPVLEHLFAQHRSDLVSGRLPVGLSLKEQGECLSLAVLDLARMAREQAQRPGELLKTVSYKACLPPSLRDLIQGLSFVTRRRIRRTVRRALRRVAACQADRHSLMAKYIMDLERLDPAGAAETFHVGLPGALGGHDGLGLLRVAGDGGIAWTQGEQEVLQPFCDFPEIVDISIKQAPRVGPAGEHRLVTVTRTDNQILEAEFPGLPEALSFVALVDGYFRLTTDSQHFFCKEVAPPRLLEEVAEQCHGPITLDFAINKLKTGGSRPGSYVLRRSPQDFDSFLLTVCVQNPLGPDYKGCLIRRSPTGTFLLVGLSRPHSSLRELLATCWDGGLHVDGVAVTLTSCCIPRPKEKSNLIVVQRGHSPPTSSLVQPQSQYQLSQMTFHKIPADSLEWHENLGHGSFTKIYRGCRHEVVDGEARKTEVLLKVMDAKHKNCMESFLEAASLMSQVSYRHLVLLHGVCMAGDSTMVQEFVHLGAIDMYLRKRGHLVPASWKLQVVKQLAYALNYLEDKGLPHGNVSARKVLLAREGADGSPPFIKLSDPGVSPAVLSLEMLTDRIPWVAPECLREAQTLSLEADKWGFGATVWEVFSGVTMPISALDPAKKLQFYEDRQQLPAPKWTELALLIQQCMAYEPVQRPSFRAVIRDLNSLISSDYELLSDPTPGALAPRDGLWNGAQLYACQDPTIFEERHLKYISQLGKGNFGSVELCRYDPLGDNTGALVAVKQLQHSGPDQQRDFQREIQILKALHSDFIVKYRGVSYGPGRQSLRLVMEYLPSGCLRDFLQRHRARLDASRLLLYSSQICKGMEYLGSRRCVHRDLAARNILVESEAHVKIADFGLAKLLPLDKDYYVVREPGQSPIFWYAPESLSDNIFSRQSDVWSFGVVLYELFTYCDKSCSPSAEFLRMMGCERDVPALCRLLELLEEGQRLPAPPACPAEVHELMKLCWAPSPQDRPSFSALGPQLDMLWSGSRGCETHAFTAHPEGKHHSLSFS
Kind of assay: Inhibition of JAK3 kinase, LANCE Ultra TR-FRET assay. The note with it: 2x ATP 8 μM, 15 min pre-incubation, 90 min reaction, 23° C. On the procedure: as §1, §2, §3, §4, §5, §6, §7

In a further assay the target is T4, TYK2 (Homo sapiens, UniProt P29597).
T4 construct: purchased Invitrogen PR8440C
T4 sequence (P29597 whole entry): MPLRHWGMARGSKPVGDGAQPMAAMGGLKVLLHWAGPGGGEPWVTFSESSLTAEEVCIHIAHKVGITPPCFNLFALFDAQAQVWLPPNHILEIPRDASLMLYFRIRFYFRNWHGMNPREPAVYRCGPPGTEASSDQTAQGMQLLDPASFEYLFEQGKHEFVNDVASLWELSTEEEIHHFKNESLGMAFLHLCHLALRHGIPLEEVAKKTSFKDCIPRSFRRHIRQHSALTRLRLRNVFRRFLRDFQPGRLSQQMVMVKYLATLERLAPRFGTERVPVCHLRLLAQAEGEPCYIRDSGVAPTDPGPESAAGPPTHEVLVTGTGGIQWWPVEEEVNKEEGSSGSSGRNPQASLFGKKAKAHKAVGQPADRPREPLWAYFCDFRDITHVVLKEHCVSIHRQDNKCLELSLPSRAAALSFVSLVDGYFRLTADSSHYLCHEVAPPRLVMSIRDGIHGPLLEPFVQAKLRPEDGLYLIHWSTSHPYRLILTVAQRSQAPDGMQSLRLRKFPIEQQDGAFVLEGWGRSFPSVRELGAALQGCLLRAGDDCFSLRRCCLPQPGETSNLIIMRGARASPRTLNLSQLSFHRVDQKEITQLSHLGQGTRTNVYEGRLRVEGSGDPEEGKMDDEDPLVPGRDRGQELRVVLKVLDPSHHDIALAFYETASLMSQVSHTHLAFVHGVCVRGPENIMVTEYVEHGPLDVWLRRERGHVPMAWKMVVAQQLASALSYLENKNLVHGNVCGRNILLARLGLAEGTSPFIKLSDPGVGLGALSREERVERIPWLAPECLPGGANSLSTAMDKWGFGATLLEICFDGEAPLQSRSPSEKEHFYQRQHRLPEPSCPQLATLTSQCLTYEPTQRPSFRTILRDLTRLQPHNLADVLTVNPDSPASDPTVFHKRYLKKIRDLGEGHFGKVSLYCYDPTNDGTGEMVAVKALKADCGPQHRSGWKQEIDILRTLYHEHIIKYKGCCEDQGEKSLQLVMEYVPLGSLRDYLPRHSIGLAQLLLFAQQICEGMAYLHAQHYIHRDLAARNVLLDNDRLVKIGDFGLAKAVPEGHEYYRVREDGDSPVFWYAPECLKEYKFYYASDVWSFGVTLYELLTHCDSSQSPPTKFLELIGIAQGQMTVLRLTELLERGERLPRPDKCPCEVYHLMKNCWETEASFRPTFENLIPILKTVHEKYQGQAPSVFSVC
The experiment in a line: Inhibition of TYK2 kinase, LANCE Ultra TR-FRET assay. As to conditions: 4 nM TYK2, 2x ATP 30 μM, 15 min pre-incubation, 90 min reaction, 23° C., read-out: tyk IC50. On the procedure: as §1, §2, §3, §4, §5, §6, §7

T1 sequence (P23458 whole entry): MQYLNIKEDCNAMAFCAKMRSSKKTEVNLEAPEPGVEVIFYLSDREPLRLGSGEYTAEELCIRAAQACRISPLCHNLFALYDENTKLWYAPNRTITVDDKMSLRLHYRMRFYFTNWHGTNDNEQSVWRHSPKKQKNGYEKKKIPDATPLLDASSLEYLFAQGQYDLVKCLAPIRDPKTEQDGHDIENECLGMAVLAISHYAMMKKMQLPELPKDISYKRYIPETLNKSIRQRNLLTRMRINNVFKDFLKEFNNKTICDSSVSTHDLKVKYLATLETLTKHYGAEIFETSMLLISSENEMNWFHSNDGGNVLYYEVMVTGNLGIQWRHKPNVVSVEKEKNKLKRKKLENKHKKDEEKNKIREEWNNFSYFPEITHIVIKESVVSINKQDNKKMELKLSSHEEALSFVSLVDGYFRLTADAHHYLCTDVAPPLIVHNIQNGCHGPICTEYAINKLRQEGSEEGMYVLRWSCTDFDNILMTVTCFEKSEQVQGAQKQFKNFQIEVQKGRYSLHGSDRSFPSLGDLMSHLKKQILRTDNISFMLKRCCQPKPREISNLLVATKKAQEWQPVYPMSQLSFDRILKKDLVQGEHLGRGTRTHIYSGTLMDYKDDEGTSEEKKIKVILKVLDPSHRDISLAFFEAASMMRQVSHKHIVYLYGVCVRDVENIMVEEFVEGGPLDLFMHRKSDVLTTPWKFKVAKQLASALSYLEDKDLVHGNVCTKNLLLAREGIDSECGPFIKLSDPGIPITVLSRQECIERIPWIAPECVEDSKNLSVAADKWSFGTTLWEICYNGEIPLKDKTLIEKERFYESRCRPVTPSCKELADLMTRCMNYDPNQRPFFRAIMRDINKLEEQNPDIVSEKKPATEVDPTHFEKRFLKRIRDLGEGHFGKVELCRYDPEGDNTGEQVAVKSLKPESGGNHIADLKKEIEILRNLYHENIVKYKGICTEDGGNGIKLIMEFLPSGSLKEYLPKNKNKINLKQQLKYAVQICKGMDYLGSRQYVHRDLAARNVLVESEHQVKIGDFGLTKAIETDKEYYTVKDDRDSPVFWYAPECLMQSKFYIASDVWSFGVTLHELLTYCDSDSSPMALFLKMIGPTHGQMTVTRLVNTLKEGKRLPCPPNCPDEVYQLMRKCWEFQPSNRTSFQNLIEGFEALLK

With `CS(=O)(=O)N1CCC(CNC(=O)c2noc3c2CN(c2ncnc4[nH]ccc24)CC3)C1` (centres unmarked) [Compound 166], the IC50 was 500 to 2000 nM against JAK1, 500 to 2000 nM at JAK2, 100 to 500 nM on JAK3 and above 2000 nM on TYK2.
With `O=C(NCCC(F)(F)F)c1nn(Cc2ccccc2)c2c1CN(c1ncnc3[nH]ccc13)CC2` [Compound 111], the IC50 against JAK1 is 100 to 500 nM; against JAK2, 500 to 2000 nM; on JAK3, below 100 nM; on TYK2, above 2000 nM.
In the case of `O=C(NCCC(O)C1CCCC1)c1noc2c1CN(c1ncnc3[nH]ccc13)CC2` (centres unmarked) [Compound 159], the half-maximal inhibitory concentration (IC50) against JAK1 is 500 to 2000 nM; against JAK2, above 2000 nM; at JAK3 it was 100 to 500 nM; on TYK2, above 2000 nM.
On to `O=C(NCCC(F)(F)F)n1ccc2c1CN(c1ncnc3[nH]ccc13)CC2` [Compound 132], for which the IC50 on JAK1 was 100 to 500 nM; at JAK2 it was 500 to 2000 nM; against JAK3 it was 500 to 2000 nM; at TYK2, above 2000 nM.
Consider `O=C(NCCC1COC1)c1noc2c1CN(c1ncnc3[nH]ccc13)CC2` [Compound 146], for which the IC50 was 100 to 500 nM at JAK1, 500 to 2000 nM on JAK2, 100 to 500 nM on JAK3 and above 2000 nM on TYK2.
For `Cn1nc(C(=O)N[C@H]2C[C@H](C(=O)NCCC(F)(F)F)C2)c2c1CCN(c1ncnc3[nH]ccc13)C2` [Compound 124], the IC50 at JAK1 is 500 to 2000 nM; on JAK2, above 2000 nM; at JAK3 it was 500 to 2000 nM; on TYK2 it was above 2000 nM.
For the molecule `O=C(NC[C@@H]1CC[C@@H]1O)c1noc2c1CN(c1ncnc3[nH]ccc13)CC2` (relative stereo) [Compound 150-2], the IC50 was 100 to 500 nM on JAK1, 100 to 500 nM at JAK2, below 100 nM at JAK3 and above 2000 nM on TYK2.
In the case of `O=C(NCCN1CCOCC1)c1noc2c1CN(c1ncnc3[nH]ccc13)CC2` [Compound 162], the IC50 is above 2000 nM against JAK1, above 2000 nM against JAK2, 500 to 2000 nM at JAK3 and above 2000 nM on TYK2.
As to `CN(C)C1CN(CCNC(=O)c2noc3c2CN(c2ncnc4[nH]ccc24)CC3)C1` [Compound 160], the IC50 is 500 to 2000 nM on JAK1, above 2000 nM at JAK2, 500 to 2000 nM on JAK3 and above 2000 nM at TYK2.
With `Cc1cnc(CCNC(=O)c2noc3c2CN(c2ncnc4[nH]ccc24)CC3)o1` [Compound 139], the IC50 against JAK1, against JAK2, on JAK3 and at TYK2 was above 2000 nM throughout.
Turning to `CS(=O)(=O)N1CCC(CCNC(=O)c2noc3c2CN(c2ncnc4[nH]ccc24)CC3)C1` (centres unmarked) [Compound 165], the IC50 on JAK1, against JAK2, on JAK3 and on TYK2 was above 2000 nM throughout.
For `Cn1nc(C(=O)N[C@H]2C[C@H](CC#N)C2)c2c1CCN(c1ncnc3[nH]ccc13)C2` [Compound 128], the IC50 is 500 to 2000 nM against JAK1, 500 to 2000 nM against JAK2, 500 to 2000 nM on JAK3 and above 2000 nM at TYK2.
As for `O=C(NCCC(F)(F)F)c1nn(CCc2cccnc2)c2c1CN(c1ncnc3[nH]ccc13)CC2` [Compound 106], the IC50 against JAK1 is above 2000 nM; on JAK2, above 2000 nM; on JAK3, 100 to 500 nM; on TYK2 it was above 2000 nM.
Consider `CCn1nc(C(=O)NCCC(F)(F)F)c2c1CCN(c1ncnc3[nH]ccc13)C2` [Compound 112], for which the IC50 at JAK1 was 100 to 500 nM; at JAK2 it was 500 to 2000 nM; at JAK3, below 100 nM; on TYK2 it was above 2000 nM.
In the case of `CS(=O)(=O)N1CCCC1CCNC(=O)c1noc2c1CN(c1ncnc3[nH]ccc13)CC2` (centres unmarked) [Compound 164], the IC50 was 500 to 2000 nM against JAK1, above 2000 nM on JAK2, 100 to 500 nM against JAK3 and above 2000 nM on TYK2.
In the case of `O=C(NCCS(=O)(=O)N1CCCCC1)c1noc2c1CN(c1ncnc3[nH]ccc13)CC2` [Compound 136], the half-maximal inhibitory concentration (IC50) was 500 to 2000 nM on JAK1, above 2000 nM against JAK2, 100 to 500 nM at JAK3 and above 2000 nM on TYK2.
For the molecule `O=C(NCCN1CCS(=O)(=O)CC1)c1noc2c1CN(c1ncnc3[nH]ccc13)CC2` [Compound 161], the half-maximal inhibitory concentration (IC50) was 500 to 2000 nM against JAK1, above 2000 nM on JAK2, 500 to 2000 nM on JAK3 and above 2000 nM on TYK2.
With `N#Cc1ccc(-c2nn(CCO)c3c2CN(c2ncnc4[nH]ccc24)CC3)cc1` [Compound 120], the IC50 against JAK2 fell in the range of 100 to 500 nM; on JAK3, 500 to 2000 nM.
On to `O=C(NCCCC1(O)CC1)c1noc2c1CN(c1ncnc3[nH]ccc13)CC2` [Compound 144], for which the IC50 is 100 to 500 nM against JAK1, 100 to 500 nM against JAK2, below 100 nM on JAK3 and above 2000 nM at TYK2.
Regarding `CN(C)S(=O)(=O)CCNC(=O)c1noc2c1CN(c1ncnc3[nH]ccc13)CC2` [Compound 156], the IC50 is 100 to 500 nM on JAK1, 100 to 500 nM at JAK2, 100 to 500 nM at JAK3 and above 2000 nM on TYK2.
Consider `O=C(NCCS(=O)(=O)N1CCCC1)c1noc2c1CN(c1ncnc3[nH]ccc13)CC2` [Compound 135], for which the IC50 against JAK1 was 100 to 500 nM; against JAK2, 100 to 500 nM; on JAK3 it was 100 to 500 nM; on TYK2, above 2000 nM.
As for `O=C(NCC(CO)C(F)(F)F)c1noc2c1CN(c1ncnc3[nH]ccc13)CC2` (centres unmarked) [Compound 151], the IC50 is below 100 nM against JAK1, below 100 nM against JAK2, below 100 nM against JAK3 and 500 to 2000 nM at TYK2.
Turning to `O=C(NCC1CCC1O)c1noc2c1CN(c1ncnc3[nH]ccc13)CC2` (centres unmarked) [Compound 150], the IC50 was 100 to 500 nM against JAK1, 100 to 500 nM against JAK2, below 100 nM against JAK3 and above 2000 nM at TYK2.
`CCn1nc(C(=O)CC#N)c2c1CCN(c1ncnc3[nH]ccc13)C2` [Compound 119]: the IC50 on JAK2 and against JAK3 was 500 to 2000 nM throughout.

The IC50 is the concentration needed to halve the response being measured.
